We go through three molecules from paper PMC7321408, “One-Pot Multicomponent Synthesis and Bioevaluation of Tetrahydroquinoline Derivatives as Potential Antioxidants, α-Amylase Enzyme Inhibitors, Anti-Cancerous and Anti-Inflammatory Agents” (Molecules, 2020).

Converted amounts (≈) assume the structure as drawn. “And” between values parts separate entries of the source, which are not always exact repeats. Identical values can stand only once. Like-named read-outs stand apart in the source and are kept apart here.

One data set has as its system brine shrimp nauplii. Nature of the data set: Brine shrimp lethality bioassay. Conditions: 24 h, n = 3. The format is in vivo. An outline of the steps:
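Ten hatched nauplii per well in artificial seawater were exposed to test compounds at 400, 200, 100 and 50 µg/mL under a lamp. Survivors counted after 24 h; percentage mortality calculated; triplicate.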

Data set [1] can be described thus: DPPH free radical scavenging assay. Conditions: mean ± SEM, n = 3; for IC50 (DPPH radical scavenging): concentration to scavenge 50% of the DPPH radicals. Put shortly: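 Compounds at 200, 66.6, 22.2 and 7.4 µg/mL were mixed with DPPH radical, with DMSO as the negative control. Absorbance was read at 630 nm, and % scavenging was calculated as (1 − Abs/Abc) × 100 against the control.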

Data set [2] can be described thus: MTT cytotoxicity against raw macrophages. The format is cell-based, albino rats. To be noted: rat; for viability at 24 h, 1 µM / viability at 24 h, 10 µM / viability at 24 h, 50 µM / viability at 24 h, 100 µM: peritoneal macrophages (raw macrophages), raw macrophages, MTT, read-out: % Cell Viability; for IC50 at 24 h: primary peritoneal macrophages, mean ± SEM, n = 3. An outline of the steps:
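Peritoneal macrophages from albino rats were treated for 24 h at 37 °C, 5% CO2 with test compounds at 100, 50, 10 and 1 µM or vehicle, from DMSO stocks. MTT was then added for 2 h, formazan dissolved in DMSO and absorbance read at 570 nm. % viability = blank-corrected sample over blank-corrected control ×100.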

In the next data set the test system is Hep-2C cells. Kind of data set: MTT assay against Hep-2C cells. To be noted: Homo sapiens, Hep2C, read-out: IC50 (Mean ± SEM) Hep-2C Cells. The format is cell-based, Human. An outline of the steps: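 Human cervix carcinoma Hep-2C cells in DMEM with 10% FCS, seeded at 1 × 10^6 and exposed to test compounds for 24, 48 and 72 h. MTT (1 mg per mL) added for 4 h, formazan dissolved in DMSO, absorbance at 570 nm. Viability % versus untreated cells after blank subtraction.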

Data set [3] is described as follows: Total reducing power (TRP) assay. Here is the method:
A TRP assay was carried out to evaluate the reducing potential of synthetic compounds. The method implicates reductones. These reductones are species with antioxidant potential that is believed to be due to their proton-donating capacity. […] The maximum value of reducing power was 104.7 ± 1.9 µg/AAE for SF5, followed by 103.18 ± 2.4 µg/AAE for SF7 and 84.57 ± 1.9 µg/AAE for SF12 (Figure 3 and Figure 4 (standard curve)).
The assay is based on the reduction of Fe^+3 to Fe^+2. The method described by Khan et al. was used with slight modifications. One hundred microliters of test samples (4 mg/mL DMSO) were taken in an Eppendrof tube and 200 μL of phosphate buffer (0.2 mol/L, pH 6.6) and 250 µL of 1% potassium ferricyanide (K3Fe CN)6) were added. This was allowed to incubate at 50 °C for 20 min. Later on, 200 μL of 10% trichloroacetic acid (TCA) was added to the mixture. The mixture was centrifuged at 3000 rpm at room temperature for 10 min. After centrifugation, 150 µL of supernatant were transferred to microplate with FeCl3 (50 μL, 0.1%) and the absorbance was taken at 630 nm. The results were calculated as µg AAE/mg.

For orientation: viability means a read-out of living cells in per cent, often relative to untreated cells. As a reminder, the IC50 is the concentration that gives 50% inhibition. Turning to `c1ccc2c(c1)CCCN2CN1CCCCC1` [SF1, 1-(Piperidine-1-ylmethyl) 1,2,3,4-tetrahahydroquinoline], in the data set with brine shrimp nauplii, the “LD50 ± SEM (brine shrimp lethality)” value was 120 ± 2.3 µg/mL and 120.8 ± 2.3 µg/mL. The “% DPPH Scavenging Activity” value in data set [1] (7.4 µg/mL) turned out to be 11.91 ± 0.32%; in data set [1] (22.22 µg/mL), 27.76 ± 0.11%; in data set [1] (66.66 µg/mL) it was 50.08 ± 0.18%; in data set [1] (200 µg/mL) it was 62.45 ± 0.12%. The “IC50 (DPPH radical scavenging)” value in data set [1] is on record as 44.22 ± 0.25 µg/mL (≈ 192 µM). The viability at 24 h, 1 µM in data set [2] (albino) was determined as 58 ± 0.76%. The viability at 24 h, 10 µM in data set [2] (albino) was 48 ± 1.34%. Besides, the viability at 24 h, 50 µM in data set [2] (albino) was 47 ± 0.84%. For the same molecule, the viability at 24 h, 100 µM in data set [2] (albino) turned out to be 44.7 ± 0.5%. Moreover, the midpoint of inhibition in data set [2] (albino), the IC50 at 24 h, lay at 6.232 ± 0.01 µM. Moreover, the results for the IC50 in the data set on Hep-2C cells (24 h), in the data set with Hep-2C cells (48 h) and with Hep-2C cells (72 h) were 28 ± 1.07 µM, 21.8 ± 1.1 µM and 14.8 ± 1.07 µM, respectively. The “Total reducing power (TRP)” value in data set [3] came out at 33.22 ± 1.5 µg/AAE.
As to `CN1CCN(CN2CCCc3ccccc32)CC1` [SF5], the “LD50 ± SEM (brine shrimp lethality)” value in the data set with brine shrimp nauplii turned out to be 94 ± 1.06 µg/mL. The “% DPPH Scavenging Activity” value in data set [1] (7.4 µg/mL) was 7.76 ± 0.23%; in data set [1] (22.22 µg/mL) it was 17.39 ± 0.16%; in data set [1] (66.66 µg/mL), 28.77 ± 0.14%; in data set [1] (200 µg/mL), 45.24 ± 0.28%. Besides, the “IC50 (DPPH radical scavenging)” value in data set [1] was 56.63 ± 0.32 µg/mL (≈ 231 µM). Also, the viability at 24 h, 1 µM in data set [2] (albino) is 98 ± 1.01%. The viability at 24 h, 10 µM in data set [2] (albino) was 74 ± 0.42%. The viability at 24 h, 50 µM in data set [2] (albino) worked out at 67 ± 0.84%. Also, in data set [2] (albino), the viability at 24 h, 100 µM amounted to 60 ± 1.2%. This molecule gave an IC50 at 24 h in data set [2] (albino) of 6.181 ± 0.05 µM. The IC50 worked out at 21.3 ± 1.09 µM in the data set on Hep-2C cells (24 h), 18 ± 1.05 µM in the data set on Hep-2C cells (48 h) and 16.8 ± 1.07 µM in the data set with Hep-2C cells (72 h). The “Total reducing power (TRP)” value in data set [3] is listed as 104.7 ± 1.9 µg/AAE.
`c1ccc(N(CN2CCCc3ccccc32)c2ccccc2)cc1` [SF7, N-((3,4-dihydroquinolin-1(2H)-yl)methyl)-N-phenylaniline]: in the data set on brine shrimp nauplii, the “LD50 ± SEM (brine shrimp lethality)” value was 100.8 ± 1.14 µg/mL. Moreover, the “% DPPH Scavenging Activity” value in data set [1] (7.4 µg/mL) was 9.28 ± 0.13%; in data set [1] (22.22 µg/mL), 26.76 ± 0.17%; in data set [1] (66.66 µg/mL), 50.48 ± 0.054%; in data set [1] (200 µg/mL) it was 64.48 ± 0.18%. The “IC50 (DPPH radical scavenging)” value in data set [1] was 44.4 ± 0.29 µg/mL (≈ 141 µM). Moreover, the viability at 24 h, 1 µM in data set [2] (albino) is 96 ± 0.89%. Besides, the viability at 24 h, 10 µM in data set [2] (albino) is 95 ± 0.96%. In addition, in data set [2] (albino), the viability at 24 h, 50 µM stood at 84 ± 0.77%. Besides, the viability at 24 h, 100 µM in data set [2] (albino) is 58 ± 0.83%. The results for the IC50 at 24 h in data set [2] (albino) and in data set [2] were 18.64 ± 0.13 µM and 18.6 ± 0.13 µM, respectively. For the same molecule, the figures for the IC50 in the data set with Hep-2C cells (24 h), with Hep-2C cells (48 h) and in the data set on Hep-2C cells (72 h) were 26.7 ± 1.1 µM, 21.6 ± 1.05 µM and 16.8 ± 1.03 µM, respectively. The “Total reducing power (TRP)” value in data set [3] was 103.18 ± 2.4 µg/AAE.
